Structures are written as SMILES.

A short description of this test: Binding affinity was determined towards Opioid receptor delta 1 using [3H]naltrindole as radioligand.

A word on the Ki: it is a measure of affinity in units of concentration, obtained from inhibition or displacement. In turn, `CC1[C@H]2Cc3ccc(NC=O)cc3[C@]1(C)CCN2CC1CC1` (stereo partly drawn) [(1R,9R,13R)-10-(cyclopropylmethyl)-1,13-dimethyl-10-azatricyclo[7.3.1.0~2,7~]trideca-2,4,6-trien-4-ylformamide] came in with a Ki of 9.8 nM. This counts as single-digit nanomolar.
In the case of `C[C@H]1C2Cc3ccc(N(C)C=O)cc3[C@@]1(C)CCN2CC1CC1` [N-((6S,11R)-3-Cyclopropylmethyl-6,11-dimethyl-1,2,3,4,5,6-hexahydro-2,6-methano-benzo[d]azocin-8-yl)-N-methyl-formamide] it was 6200 nM; in that of `C[C@H]1C2Cc3ccc(NC=O)cc3[C@@]1(C)CCN2CC1CC1` [N-((6S,11R)-3-Cyclopropylmethyl-6,11-dimethyl-1,2,3,4,5,6-hexahydro-2,6-methano-benzo[d]azocin-8-yl)-formamide], 37 nM.
For the compound `CC(=O)Nc1ccc2c(c1)[C@@]1(C)CCN(CC3CC3)C(C2)[C@@H]1C` [N-((6S,11R)-3-Cyclopropylmethyl-6,11-dimethyl-1,2,3,4,5,6-hexahydro-2,6-methano-benzo[d]azocin-8-yl)-acetamide], the affinity, expressed as Ki, was 1700 nM. This Ki lies about 46-fold higher than the previous one.
In the case of `CC[C@@]12CCN(CC3CC3)C(C(=O)c3ccc(NC=O)cc31)[C@@H]2C` [N-((6S,11R)-3-Cyclopropylmethyl-6-ethyl-11-methyl-1-oxo-1,2,3,4,5,6-hexahydro-2,6-methano-benzo[d]azocin-8-yl)-formamide] it was 52 nM.
In the case of `O=CNc1ccc2c3c1O[C@H]1C(=O)CC[C@@]4(O)[C@@H](C2)N(CC2CC2)CC[C@]314` [N-[4-cyclopropylmethyl-17-hydroxy-14-oxo-(1S,5R,17S)-12-oxa-4-azapentacyclo[9.6.1.01,13.05,17.07,18]octadeca-7(18),8,10-trien-10-yl]methanamide] it was 420 nM; in that of `C[C@H]1C2Cc3ccc(NC(=O)c4ccccc4)cc3[C@@]1(C)CCN2CC1CC1` [N-((6S,11R)-3-Cyclopropylmethyl-6,11-dimethyl-1,2,3,4,5,6-hexahydro-2,6-methano-benzo[d]azocin-8-yl)-benzamide], 2400 nM.
Turning to `Nc1ccc2c3c1O[C@H]1C(=O)CC[C@@]4(O)[C@@H](C2)N(CC2CC2)CC[C@]314` [10-amino-4-cyclopropylmethyl-17-hydroxy-(1S,5R,13R,17S)-12-oxa-4-azapentacyclo[9.6.1.01,13.05,17.07,18]octadeca-7(18),8,10-trien-14-one], the affinity, expressed as Ki, was 880 nM.
In the case of `C[C@@H]1C2Cc3ccc(NC=O)cc3[C@]1(C)CCN2CC1CC1` [(1S,9S,13S)-10-(cyclopropylmethyl)-1,13-dimethyl-10-azatricyclo[7.3.1.0~2,7~]trideca-2,4,6-trien-4-ylformamide] it was over 10000 nM.

The values are drawn from BindingDB's records for doi:10.1016/s0960-894x(03)00295-6 (Rensselaer Polytechnic Institute, 2003).
